Consider twelve compounds from ChEMBL document CHEMBL2007661, “Compounds: GSK PKIS; Assays: UNC Frye lab” (2012).

“And” between values parts separate entries of the source, which are not always exact repeats. Equal entries are not always repeated.

As a reminder, the inhibition is the drop in the measured response relative to a control, in per cent.

Conditions in all cases: at 1 µM
The target of assay [1] is T1, Inhibitor of nuclear factor kappa-B kinase subunit alpha (Homo sapiens) (UniProt O15111).
T1 sequence (whole entry): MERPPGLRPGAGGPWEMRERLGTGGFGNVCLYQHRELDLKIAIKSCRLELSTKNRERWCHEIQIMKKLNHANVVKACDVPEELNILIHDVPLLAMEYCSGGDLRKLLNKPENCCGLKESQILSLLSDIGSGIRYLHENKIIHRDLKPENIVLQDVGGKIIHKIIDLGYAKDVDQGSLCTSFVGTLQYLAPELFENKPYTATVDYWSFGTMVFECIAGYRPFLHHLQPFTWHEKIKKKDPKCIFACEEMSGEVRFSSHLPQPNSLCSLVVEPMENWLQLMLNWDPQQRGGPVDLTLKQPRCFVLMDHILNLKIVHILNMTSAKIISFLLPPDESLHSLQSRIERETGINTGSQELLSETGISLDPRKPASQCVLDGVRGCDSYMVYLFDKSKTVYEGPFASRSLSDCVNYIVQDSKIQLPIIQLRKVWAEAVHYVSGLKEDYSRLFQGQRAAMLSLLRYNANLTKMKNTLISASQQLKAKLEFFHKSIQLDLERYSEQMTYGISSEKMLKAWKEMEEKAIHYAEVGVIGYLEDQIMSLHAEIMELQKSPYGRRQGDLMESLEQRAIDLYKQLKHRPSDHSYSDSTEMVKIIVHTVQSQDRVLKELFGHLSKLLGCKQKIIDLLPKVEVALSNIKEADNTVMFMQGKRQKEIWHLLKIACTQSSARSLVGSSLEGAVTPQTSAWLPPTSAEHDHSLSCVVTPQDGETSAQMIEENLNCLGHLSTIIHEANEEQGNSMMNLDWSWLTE

Assay [2] deals with T2, Inhibitor of nuclear factor kappa-B kinase subunit beta (Homo sapiens) (UniProt O14920).
T2 sequence (whole entry): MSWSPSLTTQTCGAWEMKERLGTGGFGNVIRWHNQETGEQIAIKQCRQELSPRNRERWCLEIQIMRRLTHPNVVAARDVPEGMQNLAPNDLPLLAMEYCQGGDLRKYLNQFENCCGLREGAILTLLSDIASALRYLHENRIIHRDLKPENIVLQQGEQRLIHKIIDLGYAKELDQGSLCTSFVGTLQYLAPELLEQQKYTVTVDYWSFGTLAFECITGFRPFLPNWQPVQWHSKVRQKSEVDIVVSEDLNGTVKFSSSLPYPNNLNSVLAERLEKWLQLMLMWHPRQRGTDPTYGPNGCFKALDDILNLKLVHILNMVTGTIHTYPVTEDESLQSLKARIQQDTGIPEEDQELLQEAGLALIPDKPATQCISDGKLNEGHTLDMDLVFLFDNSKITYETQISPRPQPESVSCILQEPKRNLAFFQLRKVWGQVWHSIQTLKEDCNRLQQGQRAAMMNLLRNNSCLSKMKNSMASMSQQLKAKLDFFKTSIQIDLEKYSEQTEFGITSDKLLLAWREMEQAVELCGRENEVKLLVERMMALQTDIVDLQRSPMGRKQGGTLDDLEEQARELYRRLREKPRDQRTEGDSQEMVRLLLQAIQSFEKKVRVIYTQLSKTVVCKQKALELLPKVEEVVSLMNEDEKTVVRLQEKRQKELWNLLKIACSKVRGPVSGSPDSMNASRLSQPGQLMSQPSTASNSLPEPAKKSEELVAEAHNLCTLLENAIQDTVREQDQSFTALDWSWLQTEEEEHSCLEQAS

The target in assay [3] is T3, Inhibitor of nuclear factor kappa-B kinase subunit epsilon (Homo sapiens) (UniProt Q14164).
T3 sequence (whole entry): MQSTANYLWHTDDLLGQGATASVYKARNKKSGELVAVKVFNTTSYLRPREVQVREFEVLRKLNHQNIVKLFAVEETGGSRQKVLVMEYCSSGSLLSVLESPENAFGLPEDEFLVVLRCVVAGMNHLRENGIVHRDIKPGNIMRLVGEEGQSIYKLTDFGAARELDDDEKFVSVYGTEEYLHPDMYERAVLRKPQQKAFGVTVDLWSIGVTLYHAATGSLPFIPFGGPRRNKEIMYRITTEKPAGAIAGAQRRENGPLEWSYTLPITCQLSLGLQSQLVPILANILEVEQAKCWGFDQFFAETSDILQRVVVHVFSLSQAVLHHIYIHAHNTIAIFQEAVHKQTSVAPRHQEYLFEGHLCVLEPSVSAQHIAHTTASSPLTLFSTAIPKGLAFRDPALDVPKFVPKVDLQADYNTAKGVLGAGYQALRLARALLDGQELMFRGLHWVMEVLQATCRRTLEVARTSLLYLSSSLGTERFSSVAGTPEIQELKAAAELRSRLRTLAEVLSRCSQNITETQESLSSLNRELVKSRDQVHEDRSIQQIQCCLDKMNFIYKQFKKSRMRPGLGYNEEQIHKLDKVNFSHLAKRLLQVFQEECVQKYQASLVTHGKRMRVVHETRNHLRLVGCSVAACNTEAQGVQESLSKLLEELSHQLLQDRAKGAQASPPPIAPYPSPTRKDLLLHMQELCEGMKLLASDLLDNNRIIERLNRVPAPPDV

On to `Cc1cc(-c2ccco2)cc(C)c1/C=C/c1cncc(-c2nn[nH]n2)c1`, for which the inhibition in assay [1] is -4% and -2%; in assay [2], -1% and -3%; in assay [3] it was 9% and 11%.
As to `CC(C)c1ccc(-c2cc(-c3c[nH]nc3-c3ccccn3)ccn2)cc1`, the inhibition in assay [1] is 1% and 0%; in assay [2], -3% and -1%; in assay [3], -5%.
Turning to `CN1CCC(C(=O)Nc2n[nH]c3nc(-c4ccc(O)cc4)c(Br)cc23)CC1`, the inhibition was 1% and 3% and 4% in assay [1]; -1% [middle of 4 runs] in assay [2]; 2% (2×) and 1% in assay [3].
For the compound `COc1cccc(-c2c[nH]c3c(N/N=C/c4ccncc4)ncnc23)c1`, the inhibition in assay [1] is 2%; in assay [2], -3% and -6%; in assay [3], 35% and 33%.
For `NS(=O)(=O)c1ccc(-c2ccc3c(NC(=O)C4CC4)n[nH]c3c2)cc1`, the inhibition in assay [1] is -1% and 2%; in assay [2], -7% and -3%; in assay [3], 1% and -2%.
On to `NC(=O)c1ccc(Oc2nccc(-c3c(-c4ccc(F)cc4)ncn3C3CCNCC3)n2)cc1`, for which the inhibition in assay [1] was -5% and -4%; in assay [2] it was 0%; in assay [3], 3%.
For `NS(=O)(=O)c1ccc(N/N=C2\C(=O)Nc3ccc4ncccc4c32)cc1`, the inhibition in assay [1] is 4% and -7%; in assay [2] it was -9% and -6%; in assay [3] it was 55%.
`Nc1nccc(C#Cc2cncnc2Nc2ccc(OCc3cccc(F)c3)c(Cl)c2)n1`: the inhibition in assay [1] is 2% and 0%; in assay [2], -6% and -7%; in assay [3] it was 2% and 4%.
As for `O=C(Nc1n[nH]c2nc(-c3ccco3)c(Br)cc12)C1CC1`, the inhibition in assay [1] was 85%; in assay [2], -5% and -1%; in assay [3], 0%.
Turning to `Fc1ccc(-c2ncn(C3CCNCC3)c2-c2ccnc(Oc3ccc4c(c3)OCO4)n2)cc1`, the inhibition in assay [1] is -2% and 0%; in assay [2] it was -2% and -3%; in assay [3], -2% and 2%.
As for `Fc1ccc(-c2ncn(C3CCNCC3)c2-c2ccnc(Oc3ccc(Oc4ccccc4)cc3)n2)cc1`, the inhibition was -5% and -4% in assay [1]; 0% in assay [2]; 1% in assay [3].
On to `CNC(=O)c1cc(-c2ccc(F)cc2)cc(-c2ccc(S(=O)(=O)N3CCCC3)cc2)c1N`, for which the inhibition in assay [1] was -3% and -6%; in assay [2] it was 3% and 4%; in assay [3], 0% and -1%.
